Test results as given in patent publication US20240277732A1, “COMPOSITIONS AND METHODS FOR TREATING BRAIN-GUT DISORDERS” (Enterin, Inc., priority 2018, published 2024).
Entries after “also recorded” stand apart in the source; their conditions may differ.

Key:
Format in all cases: in vivo, human
[1] = Phase 2 trial Stage 2: systolic blood pressure
[2] = test system: patients with PD and constipation; assay: Phase 2 trial Stage 2: bowel function under daily oral dosing (stool diary, PAC-QOL, PAC-SYM)
Method: Following successful screening, all subjects underwent a 14-day run-in period where the degree of constipation was assessed through a validated daily log (Zinsmeister et al. 2013) establishing baseline CSBMs/week. Subjects with an average of <3 CSBMs/week proceeded to dosing.
(§1) In Stage 2, 34 patients were evaluated.
The primary efficacy outcome variable was whether or not a subject was a “success” or “failure”. This is an endpoint based on subject diary entries for the “fixed dose” period prior to the endpoint assessment defined as average complete stool frequency increase by 1 or more over baseline, or 3 or more complete spontaneous stools/week. The subject was deemed a “success” if s/he met one or more of the criteria listed above, otherwise the subject was deemed a “failure”. The primary analysis was based on all subjects with a baseline assessment and an assessment at the end of the “fixed-dose” period and was a comparison of the proportion of successes with 0.10 (the null hypothesis corresponding to no treatment effect).

[3] = test system: patients with PD and constipation; assay: Phase 2 trial Stage 2: circadian rhythm of wrist skin temperature
Method: (§2) Assessments were made at baseline and at the end of the fixed dose and washout periods. Circadian system status was evaluated by continuously monitoring wrist skin temperature (Thermochron iButton DS1921H; Maxim, Dallas) following published procedures (Sarabia et al. 2008).
Circadian rhythm of skin temperature was evaluable in 12 patients (i.e., those who had recordings that extended from baseline through washout). Circadian system functionality was evaluated by continuously monitoring wrist skin temperature using a temperature sensor (Thermochron iButton DS1921H; Maxim, Dallas, TX) (Sarabia et al. 2008). A nonparametric analysis was performed for each participant to characterize DST as previously described (Sarabia et al. 2008; Ortiz-Tudela et al. 2010). […]
Briefly, this analysis includes the following parameters: (i) the inter-daily stability (the constancy of 24-hour rhythmic pattern over days, IS); (ii) intra-daily variability (rhythm fragmentation, IV); (iii) average of 10-minute intervals for the 10 hours with the minimum temperature (L10); (iv) average of 10-minute intervals for the 5 hours with the maximum temperature (M5) and the relative amplitude (RA), which was determined by the difference between M5 and L10, divided by the sum of both. Finally, the Circadian Function Index (CFI) was calculated by integrating IS, IV, and RA. […]

[4] = Phase 2 trial: pharmacokinetics of orally administered squalamine (ENT-01); details: estimated against IV squalamine PK of prior clinical studies
Method: Pharmakokinetics: PK data were collected on the 10 patients enrolled in Stage 1 and 10 patients enrolled in Stage 2 to determine the extent of systemic absorption. In Stage 1, PK data were obtained at each visit, pre-medication, at 1, 2, 4, 8 and 24 hours (Table 10). In Stage 2, PK was measured on days 1 and 6 of the randomization period pre-medication, at 1, 2, 4 and 8 hours (Table 11).
The mean Cmax, Tmax and T1/2 and AUC of the squalamine ion following squalamine (ENT-01) oral dosing for Stage 1 patients. The PK analyses are only approximate, as the lower limit of the validated concentration range was 10 ng/ml; most of the measured concentrations fell below that value. The mean Cmax, Tmax and T1/2 and AUC of the squalamine ion following squalamine (ENT-01) oral dosing for Stage 2 patients. The PK analyses are only approximate, as the lower limit of the validated concentration range was 0.5 ng/ml.

[5] = test system: patients with PD and constipation; assay: Phase 2 trial: adverse events (MedDRA, CTCAE grading)
Method: Tolerability limits included diarrhea or vomiting.
as §1

[6] = test system: patients with PD and constipation; assay: Phase 2 trial Stage 2: CNS symptoms (UPDRS, MMSE, PDHQ, BDI-II, sleep diary)
Description: Exploratory end-points, in addition to constipation, included for example, (i) depression assessed using the Beck Depression Inventory (BDI-II) (Steer et al. 2000) and Unified Parkinson's Disease Rating Scale (UPDRS); (ii) cognition assessed using the Mini Mental State Examination (MMSE) (Palsteia et al. 2018), Unified Parkinson's Disease Rating Scale (UPDRS), and Trail Making Test (TMT); (iii) sleep and REM-behavior disorder (RBD) using a daily sleep diary, I-Button Temperature Assessment, a REM sleep behavior disorder (RBD) questionnaire (RBDQ) (Stiasny-Kolster et al. 2007), and the UPDRS; (iv) hallucinations assessed using the PD hallucinations questionnaire (PDHQ) (Papapetropoulos et al. 2008), the UPDRS, and direct questioning; (v) fatigue using the Parkinson's Disease Fatigue Scale (PFS-16) and the UPDRS; (vi) motor functions using the UPDRS; and (vii) non-motor functions using the UPDRS.
as §2
CNS Symptoms in Stage 2: An exploratory analysis was done with respect to the sleep data, the body temperature data, mood, fatigue, hallucinations, cognition and other motor and non-motor symptoms of PD. Continuous measurements within a subject were compared with a paired t-test and continuous measurements between subject groups were compared with a two-group t-test. Categorical data were compared with a chi-squared test or a Fisher's exact test if the expected cell counts are too small for a chi-squared test.

CC(C)[C@@H](CC[C@@H](C)[C@H]1CC[C@H]2[C@@H]3[C@H](O)C[C@H]4C[C@@H](NCCCNCCCCN)CC[C@]4(C)[C@H]3CC[C@]12C)OS(=O)(=O)O (single isomer, unassigned) [squalamine (ENT-01)]
change of blood pressure at post medication measurement ([1]; Stage 2 subjects with high or low blood pressure): subjects with high blood pressure demonstrated lower blood pressure at post medication measurement, while subjects with low blood pressure demonstrated higher blood pressure | BP at V4 + 2 hrs post dose ([1]; individual subjects): 111 mmHg | response rate (CSBM within 24 h of dosing on at least 2 of 3 days) ([2]; Stage 2, daily oral dosing, 75 mg): 26% | CSBM, weekly average (mean, SD) ([2]; Stage 2, fixed dose, n=34, baseline 1.2 (0.90)): 3.8 (2.4) /week | CSBM frequency ([2]; patients later randomized to placebo (n=9), fixed dose period on drug, baseline 1.6): 3.3 CSBM/week | CSBM frequency ([2]; randomized cohort, treatment arm (n=6), fixed dose period, baseline 0.8): 3.2 CSBM/week | CSBM frequency ([2]; randomized cohort, treatment arm (n=6), randomized period 4-6 days, baseline 0.8): 2.4 CSBM/week | CSBM frequency ([2]; randomized cohort, treatment arm (n=6), washout, baseline 0.8): 0.9 CSBM/week | markers of healthy circadian function (IS, RA, CFI, IV) ([3]; fixed dose versus baseline, 12 evaluable patients): improved all markers of healthy circadian function; also recorded: significant positive impact on the circadian rhythm of skin temperature | circadian parameters during wash-out (IS, CFI) ([3]; wash-out versus baseline): improvement persisted for several of these circadian parameters | oral bio-availability [4]: less than 0.3% | Nausea, Mild ([5]; Stage 1 (10 dosed)): 4(40) n, % | Diarrhea, adverse events by dose ([5]; Stage 1, 25 mg): 1 | Nausea, adverse events by dose ([5]; Stage 1, 25 mg): 0 | Vomiting, adverse events by dose ([5]; Stage 1, 25 mg): 0 | Diarrhea, adverse events by dose ([5]; Stage 1, 50 mg): 1 | Nausea, adverse events by dose ([5]; Stage 1, 50 mg): 0 | Vomiting, adverse events by dose ([5]; Stage 1, 50 mg): 0 | Diarrhea, adverse events by dose ([5]; Stage 1, 75 mg): 1 | Nausea, adverse events by dose ([5]; Stage 1, 75 mg): 0 | Vomiting, adverse events by dose ([5]; Stage 1, 75 mg): 0 | Diarrhea, adverse events by dose ([5]; Stage 1, 100 mg): 0 | Nausea, adverse events by dose ([5]; Stage 1, 100 mg): 1 | Vomiting, adverse events by dose ([5]; Stage 1, 100 mg): 1 | Diarrhea, adverse events by dose ([5]; Stage 1, 125 mg): 1 | Nausea, adverse events by dose ([5]; Stage 1, 125 mg): 2 | Vomiting, adverse events by dose ([5]; Stage 1, 125 mg): 1 | Diarrhea, adverse events by dose ([5]; Stage 1, 150 mg): 1 | Nausea, adverse events by dose ([5]; Stage 1, 150 mg): 0 | Vomiting, adverse events by dose ([5]; Stage 1, 150 mg): 0 | Diarrhea, adverse events by dose ([5]; Stage 1, 175 mg): 1 | Nausea, adverse events by dose ([5]; Stage 1, 175 mg): 1 | Vomiting, adverse events by dose ([5]; Stage 1, 175 mg): 0 | Diarrhea, adverse events by dose ([5]; Stage 1, 200 mg): 0 | Nausea, adverse events by dose ([5]; Stage 1, 200 mg): 2 | Vomiting, adverse events by dose ([5]; Stage 1, 200 mg): 0 | Difficulty falling asleep, Mild ([5]; Stage 2 (34 dosed)): 1(3) n, % | Eye infection, Mild ([5]; Stage 2 (34 dosed)): 1(3) n, % | Flatulence, Mild ([5]; Stage 2 (34 dosed)): 1(3) n, % | Urinary retention, Mild ([5]; Stage 2 (34 dosed)): 1(3) n, % | Urinary tract infection, Mild ([5]; Stage 2 (34 dosed)): 1(3) n, % | Worsening hemorrhoid, Mild ([5]; Stage 2 (34 dosed)): 1(3) n, % | Diarrhea, adverse events by dose ([5]; Stage 2, 75 mg): 7 | Dizziness (lightheadedness included), adverse events by dose ([5]; Stage 2, 75 mg): 8 | Nausea, adverse events by dose ([5]; Stage 2, 75 mg): 3 | Diarrhea, adverse events by dose ([5]; Stage 2, 100 mg): 10 | Dizziness (lightheadedness included), adverse events by dose ([5]; Stage 2, 100 mg): 7 | Nausea, adverse events by dose ([5]; Stage 2, 100 mg): 12 | Diarrhea, adverse events by dose ([5]; Stage 2, 125 mg): 3 | Dizziness (lightheadedness included), adverse events by dose ([5]; Stage 2, 125 mg): 8 | Nausea, adverse events by dose ([5]; Stage 2, 125 mg): 4 | Diarrhea, adverse events by dose ([5]; Stage 2, 150 mg): 2 | Dizziness (lightheadedness included), adverse events by dose ([5]; Stage 2, 150 mg): 2 | Nausea, adverse events by dose ([5]; Stage 2, 150 mg): 11 | Diarrhea, adverse events by dose ([5]; Stage 2, 175 mg): 1 | Dizziness (lightheadedness included), adverse events by dose ([5]; Stage 2, 175 mg): 0 | Nausea, adverse events by dose ([5]; Stage 2, 175 mg): 12 | Diarrhea, adverse events by dose ([5]; Stage 2, 200 mg): 3 | Nausea, adverse events by dose ([5]; Stage 2, 200 mg): 6 | Diarrhea, adverse events by dose ([5]; Stage 2, 225 mg): 3 | Nausea, adverse events by dose ([5]; Stage 2, 225 mg): 1 | Diarrhea, adverse events by dose ([5]; Stage 2, 250 mg): 2 | time hallucinations did not return after discontinuation ([6]; 1 patient): 4 weeks | time hallucinations did not return after discontinuation ([6]; another patient): 2 weeks | patients in whom hallucinations and delusions improved or disappeared during treatment ([6]; of those with hallucinations (5) or delusions (1) at baseline): 5 of 6
